We go through 1 molecule from paper PMC4191406, “Tumor-targeted in vivo gene silencing via systemic delivery of cRGD-conjugated siRNA” (Nucleic Acids Research, 2014).

The structures appear in SMILES notation.

This data set in a line: Serum cytokines by ELISA (innate immune response). The settings on record: single injection 1 nmol, 6 and 24 h after the injection, n = 3, versus saline. Format: in vivo, athymic nude mice (nu/nu). The method, then:
Athymic nude female mice (nu/nu) were injected with 1 nmol (∼0.753 mg/kg; n = 3) of cRGD-siRNA or 1 nmol of cRGD alone (∼0.045 mg/kg; n = 3) in 150 μl of saline. Mice (n = 3) injected with saline alone (200 μl) were used as negative controls. Six hours and 24 h after the injection, 300 μl of blood was drawn from each mouse and the serum was collected. Levels of serum cytokines IFN-α, IFN-γ, IL-6 and IL-12 were determined by ELISA, following manufacturer's recommendations (eBioscience/Affymetrix, USA).

In the case of `N=C(N)NCCC[C@@H]1NC(=O)[C@H](CCCCNC(=O)COCCOCCNC(=O)CCN2C(=O)C=CC2=O)NC(=O)[C@@H](Cc2ccccc2)NC(=O)[C@H](CC(=O)O)NC(=O)CNC1=O` [cRGD, cyclo(Arg-Gly-Asp-D-Phe-Lys[PEG-MAL])], the “serum levels of interferons α and γ, interleukins 6 and 12” value is “No significant difference”.
